Data: ChEMBL document CHEMBL1143555, “Development of low molecular weight HIV-1 protease dimerization inhibitors” (J Med Chem, 2005)

What follows are compounds tested against Human immunodeficiency virus type 1 protease (Human immunodeficiency virus 1, UniProt Q72874) (assay: Inhibitory concentration against human immunodeficiency virus-1 protease; (competitive inhibitor)).

SMILES | IC50
CC(O)[C@H](NC(=O)CCCCCCCCCCCCCCC(=O)N[C@H](CC(=O)N[C@@H](Cc1ccccc1)C(=O)O)C(N)=O)C(=O)N[C@@H](Cc1ccccc1)C(N)=O (stereo not given in full) | 11 µM

These compounds were tested against Human immunodeficiency virus type 1 protease (Human immunodeficiency virus 1) (UniProt Q72874) (assay: Percent inhibition of human immunodeficiency virus-1 protease after 1 uM treatment).

inhibition | SMILES
12% | CC[C@H](C)[C@@H](NC(=O)CCCCNC(=O)CCCCCCCCCCCCCCC(=O)N[C@H](CC(=O)N[C@@H](Cc1ccccc1)C(=O)O)C(N)=O)C(=O)N[C@@H](Cc1ccccc1)C(N)=O
7% | CC[C@H](C)[C@@H](NC(=O)C(C)(C)NC(=O)CCCCCCCCCCCCCCC(=O)N[C@H](CC(=O)N[C@@H](Cc1ccccc1)C(=O)O)C(N)=O)C(=O)N[C@@H](Cc1ccccc1)C(N)=O
32% | CC[C@H](C)[C@@H](NC(=O)C(CC1CC1)NC(=O)CCCCCCCCCCCCCCC(=O)N[C@H](CC(=O)N[C@@H](Cc1ccccc1)C(=O)O)C(N)=O)C(=O)N[C@@H](Cc1ccccc1)C(N)=O (stereo not given in full)

Continued, compound first:

SMILES | inhibition
CCC(C)[C@@H](NC(=O)[C@@H](NC(=O)CCCCCCCCCCCCCCC(=O)N[C@H](CC(=O)N[C@@H](Cc1ccccc1)C(=O)O)C(N)=O)C(C)O)C(=O)NC(CC1CC1)C(N)=O (stereo not given in full) | 21%
CC[C@H](C)[C@@H](NC(=O)C(CC1CCCC1)NC(=O)CCCCCCCCCCCCCCC(=O)N[C@H](CC(=O)N[C@@H](Cc1ccccc1)C(=O)O)C(N)=O)C(=O)N[C@@H](Cc1ccccc1)C(N)=O (stereo not given in full) | 13%
CCC(C)[C@H](NC(=O)CCCCCCCCCCCCCCC(=O)N[C@@H](CC(N)=O)C(=O)NC(Cc1ccc(O)cc1)C(=O)O)C(=O)N[C@H](Cc1ccccc1)C(N)=O (stereo not given in full) | 15%
CC[C@H](C)[C@@H](NC(=O)c1cccc(CNC(=O)CCCCCCCCCCCCCCC(=O)N[C@H](CC(=O)N[C@@H](Cc2ccccc2)C(=O)O)C(N)=O)c1)C(=O)N[C@@H](Cc1ccccc1)C(N)=O | 10%
CCC(C)[C@@H](NC(=O)[C@@H](NC(=O)CCCCCCCCCCCCCCC(=O)N[C@H](CC(=O)N[C@@H](Cc1ccccc1)C(=O)O)C(N)=O)C(C)O)C(=O)NC(C(N)=O)c1ccccc1 (stereo not given in full) | 29%
CCC(C)[C@@H](NC(=O)[C@@H](NC(=O)CCCCCCCCCCCCCCC(=O)N[C@H](CC(=O)N[C@@H](Cc1ccccc1)C(=O)O)C(N)=O)C(C)O)C(=O)Nc1ccc(C(N)=O)cc1 (stereo not given in full) | 36%
